Test results as given in paper PMC4212090, “The comprehensive analysis of DEG/ENaC subunits in Hydra reveals a large variety of peptide-gated channels, potentially involved in neuromuscular transmission” (BMC Biology, 2014).

Key:
[1] = tested on: functional HyNaC heterotrimer; assay: Screen of functional HyNaC heterotrimers in Xenopus oocytes for activation by Hydra-RFamides; type: cell-based, Hydra magnipapillata; conditions: 5 μM peptide; Xenopus oocytes
Description: We tested the function of the new HyNaCs by co-expression of different HyNaC subunit combinations in Xenopus oocytes. We screened for functional subunit combinations by application of 5 μM Hydra-RFamide I, a potent agonist of HyNaC2/3/5 [4]. When we expressed an individual HyNaC subunit we could never elicit currents. […] When HyNaC2 was part of the injected cRNA pool, however, Hydra-RFamide I elicited currents. Simultaneous expression of HyNaC2 with a single other HyNaC resulted only in a functional channel when we co-expressed HyNaC2 and HyNaC3; it was already known that HyNaC2 and HyNaC3 form a low-affinity peptide-gated channel.
Dashed line represents the zero current level. Amino acid sequences of Hydra-RFamides I to V are shown at the bottom. HyNaC, Hydra Na^+ channel.
Since Hydra-RFamide II had been shown previously to activate HyNaC2/3/5 [4], we tested Hydra-RFamides II to V for channel activation.
To study the biophysical properties of the new HyNaCs, cRNA of HyNaCs was synthesized in vitro (mMessage mMachine kit, Ambion, Austin, Texas, USA) and injected into Xenopus laevis oocytes of stage V and VI. After injection, oocytes were incubated for one to two days at 19°C in oocyte Ringer’s solution 2 (OR-2), which contained (in mM): 82.5 NaCl, 2.5 KCl, 1.0 Na2HPO4, 1.0 MgCl2, 1.0 CaCl2, 5.0 HEPES, 0.5 g/l PVP, 1,000 U/l penicillin and 10 mg/l streptomycin, NaOH was used to adjust pH to 7.3. Whole cell currents were recorded from defolliculated oocytes by two-electrode voltage-clamp (TEVC) using the amplifier TurboTec 03X (npi electronic GmbH, Tamm, Germany). Standard bath solution (in mM: 140 NaCl, 10 HEPES, 1.8 CaCl2 and 1.0 MgCl2. NaOH was used to adjust pH to 7.4.) was exchanged by a pump driven system combined with the oocyte testing carousel (OTC), which was controlled by the interface OTC-20 [53]. To control the OTC-20 and to record the data to the hard drive, the software CellWorks (version 5.1.1; npi electronic GmbH, Tamm, Germany) was used. Data were sampled at 0.1 to 1 kHz and filtered at 20 Hz. HyNaCs are permeable for Ca^2+, activating an endogenous CaCC [40]. Therefore, unless otherwise indicated, oocytes were injected with 50 nl of 20 mM EGTA 30 to 180 minutes before measurements. Reversal potentials and Ca^2+ permeabilities of HyNaCs were studied as described previously.

Hydra magnipapillata = assay: Feeding reaction (tentacle curling induced by glutathione) of living Hydra; type: in vivo; conditions: 10 μM GSH
Description: To find further evidence that amiloride inhibited the feeding reaction via inhibition of HyNaCs, we repeated these experiments with diminazene. Addition of glutathione (GSH; 10 μM final concentration) induced tentacle contractions and animals moved the tentacles to their mouth. After about two minutes, 100% of animals had their tentacles completely curled. […] Although the potency of diminazene in vivo was low, it should be taken into account that septate junctions provide a significant paracellular permeability barrier to the mesogleal space of Hydra. Moreover, it appears that diminazene requires active transport mechanisms for cellular uptake, probably strongly limiting its transcellular transport; amiloride in contrast is, in part, uncharged at neutral pH and has a significant membrane permeability.
Figure 11 Diminazene inhibits the feeding reaction of Hydra magnipapillata . Adult animals were held in plain medium or in medium containing 100, 200 or 300 μM diminazene (Dimi). The feeding response was induced by application of 10 μM glutathione (GSH). The number of animals showing complete tentacle curling was recorded every 30 seconds. *, P <0.05; **, P <0.01; ***, P <0.001.

HyNaC2/10/7 = HyNaC2/10/7 (Hydra vulgaris (Hydra magnipapillata), UniProt A0A0A0MP61+A0A0A0MP73+A8DZR6); assay: Inhibition of HyNaC2/10/7 currents in Xenopus oocytes (TEVC); type: cell-based; conditions: HyNaC2/10/7
Description: (§1) One of the hallmarks of DEG/ENaCs is the block by the diuretic amiloride.
(§2) Figure 10 Diminazene is a potent inhibitor of HyNaCs. A) Current trace illustrating the concentration-dependent inhibition of HyNaC2/9/7 by diminazene. Block by 100 μM amiloride was used to compare the affinity for diminazene and amiloride. […] Dashed lines represent the zero current level. B) Concentration-response curves showing the concentration-dependent inhibition of HyNaCs by diminazene. HyNaCs, Hydra Na^+ channels.
(§3) To study the biophysical properties of the new HyNaCs, cRNA of HyNaCs was synthesized in vitro (mMessage mMachine kit, Ambion, Austin, Texas, USA) and injected into Xenopus laevis oocytes of stage V and VI. […] Whole cell currents were recorded from defolliculated oocytes by two-electrode voltage-clamp (TEVC) using the amplifier TurboTec 03X (npi electronic GmbH, Tamm, Germany). […]
(§4) EC50 values for Hydra-RFamides I and II as well as IC50 values for diminazene were determined by fits to the Hill equation using IGOR Pro (version 6.06, WaveMetrics, Inc.). Reversal potentials were defined as the first recorded data point, where currents reversed signs from negative to positive. […]

HyNaC2/11/5 = HyNaC2/11/5 (Hydra vulgaris (Hydra magnipapillata), UniProt A0A0A0MP55+A8DZR6+D3UD58); assay: Inhibition of HyNaC2/11/5 currents in Xenopus oocytes (TEVC); type: cell-based; conditions: HyNaC2/11/5
Description: as §1, §2, §3, §4

HyNaC2/3/5 = HyNaC2/3/5 (Hydra vulgaris (Hydra magnipapillata), UniProt A8DZR6+A8DZR7+D3UD58); assay: Inhibition of HyNaC2/3/5 currents in Xenopus oocytes (TEVC); type: cell-based; conditions: HyNaC2/3/5
Description: as §1, §2, §3, §4

HyNaC2/3/6 = HyNaC2/3/6 (Hydra vulgaris (Hydra magnipapillata), UniProt A0A0A0MP54+A8DZR6+A8DZR7); assay: Inhibition of HyNaC2/3/6 currents in Xenopus oocytes (TEVC); type: cell-based; conditions: HyNaC2/3/6
HyNaC2/3/6, sequence (A0A0A0MP54 entry or part of it): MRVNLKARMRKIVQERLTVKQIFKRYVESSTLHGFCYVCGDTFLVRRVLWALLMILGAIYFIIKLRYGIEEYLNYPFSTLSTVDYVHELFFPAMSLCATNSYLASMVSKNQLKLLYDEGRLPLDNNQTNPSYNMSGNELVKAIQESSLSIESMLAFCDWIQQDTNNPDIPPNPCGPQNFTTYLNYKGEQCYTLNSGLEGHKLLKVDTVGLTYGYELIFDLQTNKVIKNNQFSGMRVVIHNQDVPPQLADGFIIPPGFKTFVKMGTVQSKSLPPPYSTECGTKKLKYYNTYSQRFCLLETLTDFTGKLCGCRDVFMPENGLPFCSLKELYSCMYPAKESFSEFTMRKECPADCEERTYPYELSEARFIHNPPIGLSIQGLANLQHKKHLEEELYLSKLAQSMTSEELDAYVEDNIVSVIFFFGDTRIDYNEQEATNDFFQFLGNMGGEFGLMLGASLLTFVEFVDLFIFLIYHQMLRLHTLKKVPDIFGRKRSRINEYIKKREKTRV
HyNaC2/3/6, sequence (A8DZR7 entry or part of it): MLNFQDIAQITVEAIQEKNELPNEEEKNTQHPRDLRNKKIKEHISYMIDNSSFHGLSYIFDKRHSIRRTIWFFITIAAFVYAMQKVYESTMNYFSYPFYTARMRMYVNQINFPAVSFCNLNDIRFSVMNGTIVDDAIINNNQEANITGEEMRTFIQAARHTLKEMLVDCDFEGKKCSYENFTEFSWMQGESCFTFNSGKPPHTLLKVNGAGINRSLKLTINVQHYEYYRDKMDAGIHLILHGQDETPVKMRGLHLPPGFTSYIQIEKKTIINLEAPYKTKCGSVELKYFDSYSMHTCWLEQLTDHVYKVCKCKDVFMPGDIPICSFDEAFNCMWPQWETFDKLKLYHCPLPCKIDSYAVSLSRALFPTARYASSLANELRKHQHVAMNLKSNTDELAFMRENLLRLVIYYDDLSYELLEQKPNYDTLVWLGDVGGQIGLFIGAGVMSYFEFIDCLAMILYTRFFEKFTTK
HyNaC2/3/6, sequence (A8DZR6 entry or part of it): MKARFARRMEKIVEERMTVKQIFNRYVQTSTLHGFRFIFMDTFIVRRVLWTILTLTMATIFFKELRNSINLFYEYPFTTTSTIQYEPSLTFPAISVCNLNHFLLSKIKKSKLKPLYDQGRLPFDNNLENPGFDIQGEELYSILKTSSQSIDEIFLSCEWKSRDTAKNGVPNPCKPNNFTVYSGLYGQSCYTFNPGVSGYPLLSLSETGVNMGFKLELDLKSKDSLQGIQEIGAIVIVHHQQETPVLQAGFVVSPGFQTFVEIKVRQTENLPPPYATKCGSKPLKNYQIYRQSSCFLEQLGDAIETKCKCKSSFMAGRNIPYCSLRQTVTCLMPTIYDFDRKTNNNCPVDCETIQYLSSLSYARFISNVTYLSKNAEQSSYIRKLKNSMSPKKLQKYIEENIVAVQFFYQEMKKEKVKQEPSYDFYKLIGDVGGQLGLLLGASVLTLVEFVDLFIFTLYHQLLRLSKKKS
Description: as §1, §2, §3, §4

HyNaC2/9/7 = HyNaC2/9/7 (Hydra vulgaris (Hydra magnipapillata), UniProt A0A0A0MP48+A0A0A0MP73+A8DZR6); assay: Inhibition of HyNaC2/9/7 currents in Xenopus oocytes (TEVC); type: cell-based; conditions: HyNaC2/9/7
HyNaC2/9/7, sequence (A0A0A0MP48 entry or part of it): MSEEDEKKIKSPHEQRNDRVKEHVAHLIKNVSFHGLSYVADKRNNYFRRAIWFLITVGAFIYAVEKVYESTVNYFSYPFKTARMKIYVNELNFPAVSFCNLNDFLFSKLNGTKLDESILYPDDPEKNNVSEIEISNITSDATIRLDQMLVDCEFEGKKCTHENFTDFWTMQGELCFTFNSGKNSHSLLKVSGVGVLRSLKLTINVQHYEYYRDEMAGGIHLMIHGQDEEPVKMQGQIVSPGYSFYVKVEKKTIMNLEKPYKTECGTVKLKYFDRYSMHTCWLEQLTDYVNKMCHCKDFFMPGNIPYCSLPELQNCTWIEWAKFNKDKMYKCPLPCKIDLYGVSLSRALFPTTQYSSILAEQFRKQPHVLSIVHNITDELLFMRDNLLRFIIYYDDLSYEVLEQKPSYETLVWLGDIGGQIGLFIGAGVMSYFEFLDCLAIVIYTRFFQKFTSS
HyNaC2/9/7, sequence (A8DZR6 entry or part of it): as the sequence (A8DZR6 entry or part of it) above
HyNaC2/9/7, sequence (A0A0A0MP73 entry or part of it): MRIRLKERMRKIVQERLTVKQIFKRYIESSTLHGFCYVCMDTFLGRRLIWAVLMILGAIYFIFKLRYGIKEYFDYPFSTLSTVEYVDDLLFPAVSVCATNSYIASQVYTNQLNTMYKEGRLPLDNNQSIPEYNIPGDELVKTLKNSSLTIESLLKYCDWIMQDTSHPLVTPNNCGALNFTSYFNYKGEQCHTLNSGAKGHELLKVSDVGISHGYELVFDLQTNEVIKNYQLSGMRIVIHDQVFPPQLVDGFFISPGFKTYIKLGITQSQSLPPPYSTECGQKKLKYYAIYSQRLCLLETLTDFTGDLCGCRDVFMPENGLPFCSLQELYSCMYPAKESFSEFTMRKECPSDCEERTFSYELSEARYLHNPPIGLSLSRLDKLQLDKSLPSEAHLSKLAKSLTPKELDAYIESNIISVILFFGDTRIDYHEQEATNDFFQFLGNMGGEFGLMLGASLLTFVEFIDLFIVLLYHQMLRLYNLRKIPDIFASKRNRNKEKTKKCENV
Description: as §1, §2, §3, §4

HyNaC2/3/7 = HyNaC2/3/7 (Hydra vulgaris (Hydra magnipapillata), UniProt A0A0A0MP73+A8DZR6+A8DZR7); assay: Inhibition of HyNaC2/3/7 currents in Xenopus oocytes (TEVC); type: cell-based; conditions: HyNaC2/3/7
HyNaC2/3/7, sequence (A8DZR7 entry or part of it): as the sequence (A8DZR7 entry or part of it) above
HyNaC2/3/7, sequence (A0A0A0MP73 entry or part of it): as the sequence (A0A0A0MP73 entry or part of it) above
HyNaC2/3/7, sequence (A8DZR6 entry or part of it): as the sequence (A8DZR6 entry or part of it) above
Description: as §1, §2, §3, §4

HyNaCs = assay: Block of HyNaC currents (HyNaCs in general) in Xenopus oocytes; type: cell-based, Hydra magnipapillata; conditions: most HyNaCs
Description: as §1, §2
To study the biophysical properties of the new HyNaCs, cRNA of HyNaCs was synthesized in vitro (mMessage mMachine kit, Ambion, Austin, Texas, USA) and injected into Xenopus laevis oocytes of stage V and VI. After injection, oocytes were incubated for one to two days at 19°C in oocyte Ringer’s solution 2 (OR-2), which contained (in mM): 82.5 NaCl, 2.5 KCl, 1.0 Na2HPO4, 1.0 MgCl2, 1.0 CaCl2, 5.0 HEPES, 0.5 g/l PVP, 1,000 U/l penicillin and 10 mg/l streptomycin, NaOH was used to adjust pH to 7.3. Whole cell currents were recorded from defolliculated oocytes by two-electrode voltage-clamp (TEVC) using the amplifier TurboTec 03X (npi electronic GmbH, Tamm, Germany). […]

HyNaC2/4/6 = HyNaC2/4/6 (Hydra vulgaris (Hydra magnipapillata), UniProt A0A0A0MP54+A8DZR6+A8DZR8); assay: Inhibition of HyNaC2/4/6 currents in Xenopus oocytes (TEVC); type: cell-based; conditions: HyNaC2/4/6
Description: as §1, §2, §3, §4

[2] = biological target: HyNaC2/3/7 (Hydra magnipapillata)
[3] = biological target: HyNaC2/4/6 (Hydra magnipapillata)
[4] = biological target: HyNaC2/3/6 (Hydra magnipapillata)
[5] = biological target: HyNaC2/10/7 (Hydra magnipapillata)
[6] = biological target: HyNaC2/3/5 (Hydra magnipapillata)
[7] = biological target: HyNaC2/11/5 (Hydra magnipapillata)
[8] = biological target: HyNaC2/9/7 (Hydra magnipapillata)

Molecule: Hydra-RFamide III
- activation of functional HyNaC heterotrimers (current elicited) [1]: did not elicit a current

Molecule: Hydra-RFamide IV
- activation of functional HyNaC heterotrimers (current elicited) [1]: did not elicit a current

Molecule: N=C(N)c1ccc(/N=N/Nc2ccc(C(=N)N)cc2)cc1 [diminazene]
- tentacle curling (feeding reaction) (Hydra magnipapillata; 100 μM diminazene in medium): slightly delayed
- initiation of tentacles movement (feeding reaction) (Hydra magnipapillata; 200 μM diminazene in medium): more strongly and significantly (P ≤0.01) delayed
- feeding reaction (Hydra magnipapillata; 300 μM diminazene in medium): strongly inhibited the feeding reaction
- animals with tentacles completely curled (Hydra magnipapillata; 300 μM diminazene in medium, after four minutes): 20%
- IC50 (HyNaC2/10/7): 5400 ± 1450 nM
- IC50 (HyNaC2/11/5): 31400 ± 9400 nM
- IC50 (HyNaC2/3/5): 450 ± 90 nM
- IC50 (HyNaC2/3/6): 90 ± 20 nM
- IC50 (HyNaC2/9/7): 1700 ± 580 nM
- IC50 (HyNaC2/3/7): 160 ± 80 nM
- block of HyNaC currents (HyNaCs; 10 μM diminazene): almost completely blocked
- potency relative to amiloride (HyNaCs; estimated): > 100 fold
- IC50 (HyNaC2/4/6): 50 ± 20 nM

Molecule: Hydra-RFamide II (peptide)
- current at the highest concentration of Hydra-RFamide II of the concentration-response series (two-electrode voltage clamp, EGTA-injected oocytes); concentrations and EC50 not given [2]: 11.8 μA
- current at the highest concentration of Hydra-RFamide II of the concentration-response series (two-electrode voltage clamp, EGTA-injected oocytes); concentrations and EC50 not given [3]: 4.7 μA
- current at the highest concentration of Hydra-RFamide II of the concentration-response series (two-electrode voltage clamp, EGTA-injected oocytes); concentrations and EC50 not given [4]: 9.2 μA
- current at the highest concentration of Hydra-RFamide II of the concentration-response series (two-electrode voltage clamp, EGTA-injected oocytes); concentrations and EC50 not given [5]: 1.1 μA
- EC50 of current activation by Hydra-RFamide II (two-electrode voltage clamp, Xenopus oocytes injected with EGTA) [6]: 1610 nM
- EC50 of current activation by Hydra-RFamide II (two-electrode voltage clamp, Xenopus oocytes injected with EGTA) [7]: 950 nM
- EC50 of current activation by Hydra-RFamide II (two-electrode voltage clamp, Xenopus oocytes injected with EGTA) [8]: 40 nM
